Laboratory results taken from ChEMBL document CHEMBL2057180, “Triterpenes from Alisma orientalis act as farnesoid X receptor agonists” (Bioorg Med Chem Lett, 2012).
The source made the active and inactive calls. No cut-off for these calls is given here.

Legend:
HepG2 = experiment: Cytotoxicity against human HepG2 cells; format: cell-based
[1] = target: T1, Bile acid receptor (Homo sapiens) (UniProt Q96RI1); experiment: Agonist activity at FXR LBD expressed in human HepG2 cells co-expressing GAL4 DBD and pG5-luc assessed as luciferase activity at 1 uM after 48 hrs by transient transfection reporter assay relative to control; format: functional, cell-based
T1 sequence (whole entry): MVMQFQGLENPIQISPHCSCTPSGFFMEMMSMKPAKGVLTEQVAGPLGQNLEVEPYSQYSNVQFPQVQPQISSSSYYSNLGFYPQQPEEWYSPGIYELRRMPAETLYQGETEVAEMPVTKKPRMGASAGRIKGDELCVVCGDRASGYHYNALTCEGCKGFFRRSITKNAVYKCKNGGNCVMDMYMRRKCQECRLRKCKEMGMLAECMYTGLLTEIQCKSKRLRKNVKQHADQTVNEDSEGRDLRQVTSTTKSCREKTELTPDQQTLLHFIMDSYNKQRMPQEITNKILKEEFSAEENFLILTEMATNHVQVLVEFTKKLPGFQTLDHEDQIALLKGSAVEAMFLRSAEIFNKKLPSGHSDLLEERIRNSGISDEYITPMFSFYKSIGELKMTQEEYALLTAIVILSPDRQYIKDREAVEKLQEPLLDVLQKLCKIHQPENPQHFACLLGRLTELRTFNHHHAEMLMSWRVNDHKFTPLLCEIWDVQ

[2] = target: T1, Bile acid receptor (Homo sapiens); experiment: Agonist activity at FXR LBD expressed in human HepG2 cells co-expressing GAL4 DBD and pG5-luc assessed as transrepression of rat CYP7A1 promoter-driven luciferase activity after 48 hrs by transient transfection reporter assay relative to control; format: functional, cell-based
[3] = target: T1, Bile acid receptor (Homo sapiens); experiment: Agonist activity at FXR LBD expressed in human HepG2 cells co-expressing GAL4 DBD and pG5-luc assessed as transrepression of rat CYP7A1 promoter-driven luciferase activity at 100 nM after 48 hrs by transient transfection reporter assay relative to control; format: functional, cell-based
[4] = target: T1, Bile acid receptor (Homo sapiens); experiment: Agonist activity at FXR LBD expressed in human HepG2 cells co-expressing GAL4 DBD and pG5-luc assessed as PLTP promoter-driven luciferase activity at 100 nM after 48 hrs by transient transfection reporter assay relative to control; format: functional, cell-based
[5] = target: T1, Bile acid receptor (Homo sapiens); experiment: Agonist activity at FXR LBD expressed in human HepG2 cells co-expressing GAL4 DBD and pG5-luc assessed as luciferase activity at 100 nM after 48 hrs by transient transfection reporter assay relative to control; format: functional, cell-based
[6] = target: T1, Bile acid receptor (Homo sapiens); experiment: Agonist activity at FXR LBD expressed in human HepG2 cells co-expressing GAL4 DBD and pG5-luc assessed as SHP promoter-driven luciferase activity at 100 nM after 48 hrs by transient transfection reporter assay relative to control; format: functional, cell-based
[7] = target: T1, Bile acid receptor (Homo sapiens); experiment: Agonist activity at FXR LBD expressed in human HepG2 cells co-expressing GAL4 DBD and pG5-luc assessed as PLTP promoter-driven luciferase activity after 48 hrs by transient transfection reporter assay relative to control; format: functional, cell-based
[8] = target: T1, Bile acid receptor (Homo sapiens); experiment: Agonist activity at FXR LBD expressed in human HepG2 cells co-expressing GAL4 DBD and pG5-luc assessed as SHP promoter-driven luciferase activity at 1 uM after 48 hrs by transient transfection reporter assay relative to control; format: functional, cell-based

Structure (SMILES) | Activity (HepG2) | Ratio [1] | Activity [2] | Activity [3] | Activity [4] | Activity [5] | Activity [6] | Activity [7] | Ratio [8]
CC(=O)O[C@@H](C[C@@H](C)C1=C2C[C@H](O)[C@H]3[C@@]4(C)CCC(=O)C(C)(C)[C@@H]4CC[C@]3(C)[C@@]2(C)CC1)[C@@H](O)C(C)(C)O | Non-toxic | 2 | Dose-dependent effect | inactive | inactive | inactive | inactive | Dose-dependent effect | 1.6
CC(=O)O[C@@H](C[C@@H](C)C1=C2[C@H](O)[C@H](O)[C@H]3[C@@]4(C)CCC(=O)C(C)(C)[C@@H]4CC[C@]3(C)[C@@]2(C)CC1=O)[C@H]1OC1(C)C | Non-toxic | 2 | Dose-dependent effect | 85% | inactive | inactive | inactive | Dose-dependent effect | 1.6
C[C@H](C[C@H](O)[C@H]1OC1(C)C)C1=C2C[C@H](O)[C@H]3[C@@]4(C)CCC(=O)C(C)(C)[C@@H]4CC[C@]3(C)[C@@]2(C)CC1 [ALISOL B] | Toxic | – | – | – | – | – | – | – | –
